Experimental data published in patent US9675646B2, “Tubular bioengineered smooth muscle structures” (WAKE FOREST UNIVERSITY HEALTH SCIENCES, priority 2012, dated 2017).
Where no end group is shown, it is not given here.

Test system: rabbit esophageal circular smooth muscle tissue constructs
Experiment: Real time isometric force generation of bioengineered esophageal smooth muscle constructs
Type: cell-based
Details: isometric force transducer, tissue bath 37° C., constructs taken off chitosan scaffold, stretch baseline set to zero
Description: Tubular esophageal tissue was tissue-engineered to mimic the mechanical and physiological function of a native esophagus. Several concentrically aligned esophageal circular smooth muscle tissue constructs were bioengineered using collagen hydrogel. Three-dimensional smooth muscle tissue constructs were bioengineered. Rabbit esophageal constructs were bioengineered by laying down 5×10^5 rabbit esophageal circular smooth muscle cells in collagen gel on a Sylgard-coated plate with a central post. The smooth muscle constructs were placed around a 2.5 cm long hollow chitosan tube and biodegradable surgical glue was applied between the smooth muscle constructs and along their circumference. The constructs were maintained around the scaffold in culture for 5 days. The constructs were taken off the scaffold and tested to determine cholinergic contraction in response to Acetylcholine (Ach) and relaxation in response to vasoactive intestinal peptide (VIP). An isometric force transducer (Harvard Apparatus, Holliston, Mass.) was used to record real time force generated by the constructs. The constructs were kept incubated in a warm tissue bath keeping the tissue samples at conditions of 37° C.±1° C. The bioengineered tissue constructs were taken off the scaffold at day 15 for force generation measurement. […]

Compound	relaxation (change in force generation) (FIG. 2)	contraction (change in force generation) (FIG. 1)
vasoactive intestinal peptide (HSDAVFTDNYTRLRKQMAVKKYLNSILN; ends and bridges not checked; UniProt P01282 125-152, looked up) [VIP, relaxant peptide used to test construct relaxation]	−35 μN	–
CC(=O)OCC[N+](C)(C)C [Ach, Acetylcholine]	–	45 μN
